Experimental data: paper PMC4076210, “Discovery of Novel AKT Inhibitors with Enhanced Anti-Tumor Effects in Combination with the MEK Inhibitor” (PLoS ONE, 2014)

Experiments:
[1] = test system: hematological tumor cell lines; experiment: 3-day proliferation assay (CellTiter-Glo); type: cell-based, human; settings: Homo sapiens
How it was run: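 Growth inhibition was read by CellTiter-Glo after 3 days' exposure to 0–30 µM compound and expressed against DMSO controls. EC50 was derived by 4- or 6-parameter fitting. Cells were mostly grown in RPMI plus 10% FBS, some in vendor-specified media.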

FGFR1(h) = target: T1, FGFR1(h) (Homo sapiens, UniProt P11362); experiment: Kinase panel; type: biochemical; settings: read-out: % Inhibition
T1 construct: purchased Millipore KinaseProfiler
T1 sequence (P11362 22-822): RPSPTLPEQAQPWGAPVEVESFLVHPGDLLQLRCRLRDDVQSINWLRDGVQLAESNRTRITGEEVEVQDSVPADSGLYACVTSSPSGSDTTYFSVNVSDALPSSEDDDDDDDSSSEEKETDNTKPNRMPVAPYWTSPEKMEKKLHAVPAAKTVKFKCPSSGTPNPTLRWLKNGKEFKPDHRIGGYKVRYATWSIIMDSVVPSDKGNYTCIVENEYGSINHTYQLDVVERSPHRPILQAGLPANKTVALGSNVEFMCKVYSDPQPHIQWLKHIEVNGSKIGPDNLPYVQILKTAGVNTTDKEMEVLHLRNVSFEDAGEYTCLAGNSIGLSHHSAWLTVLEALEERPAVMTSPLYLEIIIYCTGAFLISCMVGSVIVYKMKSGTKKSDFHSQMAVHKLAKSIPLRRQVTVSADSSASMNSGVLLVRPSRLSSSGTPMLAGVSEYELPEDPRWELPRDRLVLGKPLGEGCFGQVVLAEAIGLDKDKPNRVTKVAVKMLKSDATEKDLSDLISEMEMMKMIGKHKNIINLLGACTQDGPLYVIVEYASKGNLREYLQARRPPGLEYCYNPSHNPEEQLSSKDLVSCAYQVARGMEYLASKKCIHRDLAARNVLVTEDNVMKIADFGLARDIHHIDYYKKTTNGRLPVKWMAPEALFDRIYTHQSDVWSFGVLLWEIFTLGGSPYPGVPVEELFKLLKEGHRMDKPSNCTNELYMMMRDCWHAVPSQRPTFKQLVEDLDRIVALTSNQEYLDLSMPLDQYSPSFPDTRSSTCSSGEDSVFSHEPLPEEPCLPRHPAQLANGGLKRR

For `Cn1ncc(Cl)c1-c1cc(C(=O)N[C@H](CN)Cc2ccc(F)c(F)c2)oc1Cl` [GSK2141795], the IC50 ([1]; KU812, Ku812 cell line, CML, Basophilic Leukocyte) was 72 nM, the IC50 ([1]; Kasumi 1, Kasumi-1 cell line, AML, Myeloblast) was 22.3 nM and the IC50 ([1]; Kasumi-2 cell line, AML, Myeloblast) was 457 nM. The IC50 ([1]; L-428, L428 cell line, Hodgkin's Lymphoma, Unspecified) was 1.2 nM, the IC50 ([1]; MC116, MC116 cell line, Burkitt's Lymphoma, B Cell) was 320 nM and the IC50 ([1]; MEC1, MEC1 cell line, CLL, B Cell) was 168 nM. It also gave an IC50 ([1]; MEC2, MEC-2 cell line, CLL, B Cell) of 112 nM, an IC50 ([1]; MEG-01, MEG01 cell line, CML, Megakaryoblastic) of 285 nM and an IC50 ([1]; MHH-CALL-3 cell line, ALL, pre-B Cell) of 26 nM. For the same compound, the IC50 ([1]; MHH-PREB-1, MHH-PREB-1 cell line, Non-Hodgkin's Lymphoma, B Cell) was 932 nM, the IC50 ([1]; ML-2, ML-2 cell line, AML, Myelomonocytic) was 399 nM and the IC50 ([1]; MOLT-3, MOLT3 cell line, ALL, T Cell) was 19 nM. It also gave an IC50 ([1]; MOLT-4, Molt-4 cell line, ALL, T Cell) of 10 nM, an IC50 ([1]; MOLT-16, MOLT16 cell line, ALL, T Cell) of 15 nM and an IC50 ([1]; MV4-11, MV-4-11 cell line, AML, Myelomonocytic) of 875 nM. For the same compound, the IC50 ([1]; NALM-6, Nalm-6 cell line, ALL, pre-B Cell) was 74 nM, the IC50 ([1]; NC-37, NC-37 cell line, Burkitt's Lymphoma, B Cell) was 752 nM and the IC50 ([1]; NOMO-1, Nomo-1 cell line, AML, B Cell) was 48 nM. The IC50 ([1]; NU-DHL-1, NU-DHL-1 cell line, Burkitt's Lymphoma, B Cell) was 16 nM, the IC50 ([1]; OCI-AML2, OCI-AML-2 cell line, AML, B Cell) was 18100 nM and the IC50 ([1]; OCI-AML-3, OCI-AML-3 cell line, AML, B Cell) was 28 nM. It also gave an IC50 ([1]; OCI-M1, OCI-M1 cell line, AML, B Cell) of 644 nM, an IC50 ([1]; P3HR-1, P3HR-1 cell line, Burkitt's Lymphoma, B Cell) of 17 nM and an IC50 ([1]; PLB-985, PLB985 cell line, AML, B Cell) of 1140 nM. It also gave an IC50 ([1]; Pfeiffer, Pfeiffer cell line, Non-Hodgkin's Lymphoma, B Cell) of 10 nM, an IC50 ([1]; RCH-ACV cell line, ALL, pre-B Cell) of 157 nM and an IC50 ([1]; RCK8, RC-K8 cell line, Non-Hodgkin's Lymphoma (Histiocytic), B Cell) of 1750 nM. For the same compound, the IC50 ([1]; REH, Reh cell line, ALL, pre-B Cell) was 92 nM, the IC50 ([1]; RL, RL cell line, Non-Hodgkin's Lymphoma, B Cell) was 72 nM and the IC50 ([1]; RPMI-6666, RPMI 6666 cell line, Hodgkin's Lymphoma, Lymphoblast) was 121 nM. For the same compound, the IC50 ([1]; RS4-11, RS4;11 cell line, ALL, B Cell) was 177 nM, the IC50 ([1]; Raji, Raji cell line, Burkitt's Lymphoma, B Cell) was 6370 nM and the IC50 ([1]; Rec1, REC-1 cell line, Non-Hodgkin's Lymphoma, B Cell) was 721 nM. The IC50 ([1]; SC-1, SC1 cell line, Burkitt's Lymphoma, B Cell) was 965 nM, the IC50 ([1]; SEM cell line, ALL, pre-B Cell) was 210 nM and the IC50 ([1]; SKO-007, SKO-007 cell line, Multiple Myeloma, B Cell) was 4890 nM. For the same compound, the IC50 ([1]; SKW3, SKW-3 cell line, CLL, B Cell) was 26 nM, the IC50 ([1]; SR, SR cell line, Non-Hodgkin's Lymphoma, Lymphoblast) was 1960 nM and the IC50 ([1]; ST486, ST486 cell line, Burkitt's Lymphoma, B Cell) was 745 nM. The IC50 ([1]; SU-DHL10, SU-DHL-10 cell line, Non-Hodgkin's Lymphoma, B Cell) was 73 nM, the IC50 ([1]; SU-DHL-4, SU-DHL-4 cell line, Non-Hodgkin's Lymphoma, B Cell) was 53 nM and the IC50 ([1]; SU-DHL-5, SU-DHL-5 cell line, Non-Hodgkin's Lymphoma, B Cell) was 31 nM. It also gave an IC50 ([1]; SU-DHL-6, SU-DHL-6 cell line, Non-Hodgkin's Lymphoma, B Cell) of 35 nM, an IC50 ([1]; SU-DHL-16, SU-DHL-16 cell line, Non-Hodgkin's Lymphoma, B Cell) of 23 nM and an IC50 ([1]; SUP-B15, SUP B15 cell line, ALL, B Cell) of 824 nM. It also gave an IC50 ([1]; T-cell, 8E5 cell line, ALL, T Cell) of 31 nM, an IC50 ([1]; T-cell, A3 cell line, ALL, T Cell) of 38 nM and an IC50 ([1]; T-cell, CEM/C3 cell line, ALL, T Cell) of 18 nM. It also gave an IC50 ([1]; T-cell, I2.1 cell line, ALL, T Cell) of 26 nM, an IC50 ([1]; T-cell, I9.2 cell line, ALL, T Cell) of 43 nM and an IC50 ([1]; T-cell, J.Cam.1.6 cell line, ALL, T Cell) of 41 nM. The IC50 ([1]; T-cell, J.RT-T3.5 cell line, ALL, T Cell) was 30 nM, the IC50 ([1]; T-cell, JR45.01 cell line, ALL, T Cell) was 16 nM and the IC50 ([1]; T-cell, LOUCY cell line, ALL, T Cell) was 13 nM. It also gave an IC50 ([1]; T-cell, MJ cell line, Non-Hodgkin's Lymphoma (CTCL), T Cell) of 2880 nM, an IC50 ([1]; T-cell, P116 cell line, ALL, T Cell) of 18 nM and an IC50 ([1]; T-cell, SUPTI(VB) cell line, ALL, T Cell) of 115 nM. The IC50 ([1]; TO 175.T, TO 175.T cell line, Hodgkin's Lymphoma, Unspecified) was 5250 nM, the IC50 ([1]; Toledo, Toledo cell line, Non-Hodgkin's Lymphoma, B Cell) was 99 nM and the IC50 ([1]; U-937, U937 cell line, Non-Hodgkin's Lymphoma (Histiocytic), Monocyte) was 22 nM. For the same compound, the inhibition at 0.5 µM (FGFR1(h); 0.5 µM) was -15% and the inhibition at 10 µM (FGFR1(h); 10 µM) was -6%.
